Measured values taken from ChEMBL document CHEMBL2040796, “Synthesis and biological activity of both enantiomers of kujigamberol isolated from 85-million-years-old Kuji amber” (Bioorg Med Chem Lett, 2012).
pIC50: −log10 of the molar value. The source made the active and inactive calls. The calls are words filed in the database; no cut-off is given here.

What was measured:
[1] = system: Saccharomyces cerevisiae; test: Antimicrobial activity against Saccharomyces cerevisiae harboring zds1delta, erg3delta pdr1delta pdr3delta mutant assessed as clear growth restored zone at 0.5 to 0.0156 ug/spot; type: functional, organism-based
[2] = system: HL-60; test: Cytotoxicity against human HL60 cells; type: functional, cell-based

Row | SMILES | Activity [1] | Activity [2] | pIC50 [2]
1 | COC(=O)C1(C)CCCc2ccccc21 (configuration not stated) | inactive | inactive | 
2 | Cc1ccc2c(c1CCC(C)C)CCCC2CO (configuration not stated) | Active | Active | 
3 | CC1(CO)CCCc2ccccc21 (configuration not stated) | inactive | inactive | 
4 | OCC1CCCc2ccccc21 (configuration not stated) | inactive | inactive | 
5 | Cc1ccc2c(c1CCC(C)C)CCC[C@]2(C)CO [KUJIGAMBEROL] | Active |  | 4.62
6 | Cc1ccc2c(c1CCC(C)C)CCC[C@@]2(C)CO | Active | Active | 
